Converted amounts (≈) assume the structure as drawn.
Tests used:
[1] = Cmax in Sprague-Dawley rat at 3 mg/kg, po; assay type: ADME, organism-based; set-up: dose 3 mg/kg, route oral; conditions: in vivo
[2] = Equilibrium solubility in 0.5% methylcellulose/2% Tween-80 in water; assay type: physicochemical
[3] = AUC (0 to infinity) in Sprague-Dawley rat at 3 mg/kg, po; assay type: ADME, organism-based; set-up: time infinity, dose 3 mg/kg, route oral; conditions: plasma
[4] = AUC (0 to infinity) in C57 mouse at 3 mg/kg, po; assay type: ADME, organism-based; set-up: time infinity, dose 3 mg/kg, route oral; conditions: plasma
[5] = Cmax in C57 mouse at 3 mg/kg, po; assay type: ADME, organism-based; set-up: dose 3 mg/kg, route oral; conditions: in vivo
[6] = Tmax in C57 mouse at 3 mg/kg, po; assay type: ADME, organism-based; set-up: dose 3 mg/kg, route oral; conditions: in vivo
[7] = (§1) AUC (0 to infinity) in Sprague-Dawley rat at 3 mg/kg, iv; assay type: ADME, organism-based, Plasma; set-up: time infinity, dose 3 mg/kg, route intravenous; conditions: Sprague-Dawley, plasma
[8] = Tmax in Sprague-Dawley rat 3 mg/kg, po; assay type: ADME, organism-based; set-up: dose 3 mg/kg, route oral; conditions: in vivo
[9] = AUC (0 to infinity) in C57 mouse at 3 mg/kg, iv; assay type: ADME, organism-based; set-up: time infinity, dose 3 mg/kg, route intravenous; conditions: plasma
[10] = Oral bioavailability in Sprague-Dawley rat 3 mg/kg; assay type: ADME, organism-based; conditions: in vivo
[11] = Tmax in C57 mouse at 30 mg/kg, po; assay type: ADME, organism-based; set-up: dose 30 mg/kg, route oral; conditions: in vivo
[12] = AUC (0 to infinity) in C57 mouse at 30 mg/kg, po; assay type: ADME, organism-based; set-up: time infinity, dose 30 mg/kg, route oral; conditions: plasma
[13] = Tmax in Sprague-Dawley rat 30 mg/kg, po; assay type: ADME, organism-based; set-up: dose 30 mg/kg, route oral; conditions: in vivo
[14] = tested on: Rattus norvegicus; experiment: Oral bioavailability in Sprague-Dawley rat at 30 mg/kg; assay type: ADME, organism-based; conditions: in vivo
[15] = tested on: Rattus norvegicus; experiment: as §1; assay type: ADME, organism-based, Plasma; set-up: time infinity, dose 3 mg/kg, route intravenous; conditions: in vivo
[16] = tested on: Rattus norvegicus; experiment: AUC (0 to infinity) in Sprague-Dawley rat at 30 mg/kg, po; assay type: ADME, organism-based, Plasma; set-up: time infinity, dose 30 mg/kg, route oral; conditions: in vivo
[17] = Cmax in C57 mouse at 30 mg/kg, po; assay type: ADME, organism-based; set-up: dose 30 mg/kg, route oral; conditions: in vivo
[18] = Oral bioavailability in C57 mouse at 30 mg/kg; assay type: ADME, organism-based; conditions: in vivo
[19] = Cmax in Sprague-Dawley rat at 30 mg/kg, po; assay type: ADME, organism-based; set-up: dose 30 mg/kg, route oral; conditions: in vivo

| solubility thermodynamic [2] [µg/mL] | Structure (SMILES) | further results |
| --- | --- | --- |
| 250 (≈ 444 µM) | CC(C)OC(=O)C1=CN(C(=O)c2ccc(OCCCN3CCOCC3)cc2)CC(C)(C)c2c1[nH]c1cc(F)ccc21 | Cmax [1]: 68 ng/mL; AUC(0-inf) [3]: 361 ng·h/mL; AUC(0-inf) [4]: 370 ng·h/mL; Cmax [5]: 81 ng/mL; Tmax [6]: 1 h; AUC(0-inf) [7]: 960 ng·h/mL; Tmax [8]: 2 h; AUC(0-inf) [9]: 1720 ng·h/mL; bioavailability [10]: 38% |
| 5920 | CC(C)OC(=O)C1=CN(C(=O)c2ccc(OCCCN3CCOCC3)cc2)CC(C)(C)c2c1[nH]c1cc(F)ccc21.Cl | – |
| > 6000 | CC(C)OC(=O)C1=CN(C(=O)c2ccc(OCCN3CCOCC3)cc2)CC(C)(C)c2c1[nH]c1cc(F)ccc21.Cl | – |
| 1140 (≈ 2040 µM) | CC(C)OC(=O)C1=CN(C(=O)c2ccc(OCCCN3CCN(C)CC3)cc2)CC(C)(C)c2c1[nH]c1ccccc21 | – |
| 24 (≈ 46.5 µM) | CC(C)OC(=O)C1=CN(C(=O)c2ccc(OCCN3CCCC3)cc2)CC(C)(C)c2c1[nH]c1ccccc21 | – |
| 280 (≈ 509 µM) | CC(C)OC(=O)C1=CN(C(=O)c2ccc(OCCN3CCOCC3)cc2)CC(C)(C)c2c1[nH]c1cc(F)ccc21 | Tmax [11]: 1 h; AUC(0-inf) [12]: 6700 ng·h/mL; Tmax [13]: 1.7 h; F [14]: 25%; AUC [15]: 781 ng·h/mL; AUC [16]: 193 ng·h/mL; Cmax [17]: 1130 ng/mL; bioavailability [18]: 53%; AUC(0-inf) [9]: 1260 ng·h/mL; Cmax [19]: 35 ng/mL |
| 200 (≈ 367 µM) | CC(C)OC(=O)C1=CN(C(=O)c2ccc(OCCCN3CCOCC3)cc2)CC(C)(C)c2c1[nH]c1ccccc21 | – |
| 118 (≈ 216 µM) | CC(C)OC(=O)C1=CN(C(=O)c2cccc(OCCCN3CCOCC3)c2)CC(C)(C)c2c1[nH]c1ccccc21 | – |
| 111 (≈ 210 µM) | CC(C)OC(=O)C1=CN(C(=O)c2cccc(OCCN3CCCCC3)c2)CC(C)(C)c2c1[nH]c1ccccc21 | – |
| 2330 (≈ 4400 µM) | CC(C)OC(=O)C1=CN(C(=O)c2ccc(OCCCN3CCCC3)cc2)CC(C)(C)c2c1[nH]c1ccccc21 | – |
| 1220 (≈ 2240 µM) | CC(C)OC(=O)C1=CN(C(=O)c2ccc(OCCCN3CCCCC3)cc2)CC(C)(C)c2c1[nH]c1ccccc21 | – |
| 536 (≈ 1090 µM) | CC(C)OC(=O)C1=CN(C(=O)c2cccc(OCCN(C)C)c2)CC(C)(C)c2c1[nH]c1ccccc21 | – |
| 1740 (≈ 3110 µM) | CC(C)OC(=O)C1=CN(C(=O)c2cccc(OCCCN3CCN(C)CC3)c2)CC(C)(C)c2c1[nH]c1ccccc21 | – |
| 80 (≈ 150 µM) | CC(C)OC(=O)C1=CN(C(=O)c2ccc(OCCN3CCOCC3)cc2)CC(C)(C)c2c1[nH]c1ccccc21 | – |
| 82 (≈ 151 µM) | CC(C)OC(=O)C1=CN(C(=O)c2ccc(OCCN3CCN(C)CC3)cc2)CC(C)(C)c2c1[nH]c1ccccc21 | – |
| 245 (≈ 488 µM) | CC(C)OC(=O)C1=CN(C(=O)c2ccc(CN3CCOCC3)cc2)CC(C)(C)c2c1[nH]c1ccccc21 | – |
| 2470 (≈ 4900 µM) | CC(C)OC(=O)C1=CN(C(=O)c2ccc(OCCCN(C)C)cc2)CC(C)(C)c2c1[nH]c1ccccc21 | – |
| 380 (≈ 731 µM) | CC(C)OC(=O)C1=CN(C(=O)c2ccc(CN3CCOCC3)cc2)CC(C)(C)c2c1[nH]c1cc(F)ccc21 | – |
| 80 (≈ 151 µM) | CC(C)OC(=O)C1=CN(C(=O)c2ccc(OCCN3CCCCC3)cc2)CC(C)(C)c2c1[nH]c1ccccc21 | – |
| 1040 (≈ 1920 µM) | CC(C)OC(=O)C1=CN(C(=O)c2cccc(OCCCN3CCCCC3)c2)CC(C)(C)c2c1[nH]c1ccccc21 | – |
| 17 (≈ 34.7 µM) | CC(C)OC(=O)C1=CN(C(=O)c2ccc(OCCN(C)C)cc2)CC(C)(C)c2c1[nH]c1ccccc21 | – |
| 155 (≈ 292 µM) | CC(C)OC(=O)C1=CN(C(=O)c2cccc(OCCN3CCOCC3)c2)CC(C)(C)c2c1[nH]c1ccccc21 | – |

From ChEMBL document CHEMBL1156884, “Improvement of physiochemical properties of the tetrahydroazepinoindole series of farnesoid X receptor (FXR) agonists: beneficial modulation of lipids in primates” (J Med Chem, 2010)
